Here are results for 3 molecules from US20130156728A1, “COMPOSITION FOR NEUROLOGICAL OR AUTOIMMUNE DISEASES” (National Institutes of Health (NIH), U.S. Dept. of Health …, priority 2010, published 2013).

One data set deals with mice. As to the kind of experiment: Characterization of subacute MPTP model (striatal dopamine, splenocyte counts). Type of data set: in vivo, mouse. The method, then:
To establish a subacute MPTP model, we tested administration of 10 mg/kg/day and 20 mg/kg/day MPTP for consecutive 5 days.
Data are represented as mean±SEM.

Data set [1] concerns humans with type 1 diabetes. As to conditions: injections; cited from earlier work.
For a further data set, the system named is chronic MPTP model. As to the kind of experiment: Vaccination in chronic MPTP model (striatal DA and DAT). The class given is in vivo, C57BL/6 mice.
For data set [2], the system named is mouse models of Alzheimer's disease. The conditions noted are these: without adjuvant; cited from earlier work.

Regarding `CN1CC=C(c2ccccc2)CC1` [MPTP, 1-Methyl-4-Phenyl-1,2,3,6-Tetrahydro-Pyridine], the “effect on striatal dopamine levels” value in the data set with mice (10 mg/kg/day MPTP for 5 days, four days after the last treatment) is reported as “no obvious effect”. Further, the “decrease of striatal dopamine level compared to PBS treated mice” value in the data set on mice (20 mg/kg/day MPTP for 5 days, four days after the last treatment) is 70%. For the same molecule, the “effect on splenocyte counts (immunotoxicity)” value in the data set on mice (subacute MPTP, 10 and 20 mg/kg/day for 5 days) is listed as “did not affect”.

On to “GAD65: isoform of glutamic acid decarboxylase, 65 kDa”, for which the “preservation of some insulin production” value in data set [1] was 30 months.

For “glatiramer acetate [Copaxone (without adjuvant)]”, the “protection of striatal dopamine (DA) and dopamine transporter (DAT)” value in the data set on chronic MPTP model is given as “no protective effect”. In addition, the “effect in mouse models of Alzheimer's disease” value in data set [2] is on record as “beneficial”.
